Values quoted from earlier work as cited in patent US6979468B1, “Oral composition and method for the treatment of inflammatory cutaneous disorders” (Sirius Laboratories, priority 2002, dated 2005).

Test system: acne vulgaris
Settings: administered orally, 100–600 milligrams per day in divided doses taken 2 to 4 times per day

NC(=O)c1cccnc1 [nicotinamide]
effect on acne lesions: decrease inflammatory lesions such as papules, pustules, and cysts, but not comedones
